pIC50: −log10 of the molar value. ≈ marks a conversion by molar mass, not a printed value. Where two headings read alike, the source gives them in different places.
Legend:
[1] = system: L. amazonensis promastigotes; parameters: method as in Brissow et al. 2017; details: ref Brissow et al. 2017; cited from earlier work
Vero cells = assay: Cytotoxicity assay using Vero cells, MTT; format: cell-based, African green monkey; details: for pIC50: Chlorocebus sabaeus, Vero, 72 h, read-out: Vero IC50; for selectivity index (SI): IC50 Vero cells/IC50 L. (V.) braziliensis; for toxicity to Vero cells (in words): concentration range tested
Protocol: Cytotoxicity assay using Vero cells - African green monkey kidney cells (Vero) were used as model of normal cells and were provided by Erna Kroon (Federal University of Minas Gerais, Brazil). The cells were maintained in DMEM medium (Sigma-Aldrich), containing 5% FBS (Gibco/Brl), enriched with 1% antibiotic solution (100 IU/mL penicillin and 100 µg/mL streptomycin, Gibco/Brl). Vero cells were inoculated in 96 well plates at 1 × 10^4 cells/well and the plates incubated for 24 h at 37°C. The samples and amphotericin B (positive control) were dissolved in DMSO (Sigma-Aldrich). […] All cell cultures were incubated in a 5% CO2/95% humidified air atmosphere at 37°C for 72 h. Wells with 0.5% v/v DMSO were used as a negative control. All medium and reagents used in the assays were endotoxin free. Cell viability was estimated by measuring the mitochondrial reduction of MTT ([Monks et al. 1991]). The samples were tested in triplicate in two independent experiments. The results were expressed as percentage of viability in relation to the negative control (DMSO, 0.5% v/v), calculated as follows: percentage of cell viability (%) = [(treated mean OD / negative control) x 100] and obtained from two independent experiments performed in triplicate. The IC50 values were calculated by non-linear regression using GraphPad Prism® Version 5.01 software. The selective index (SI) was calculated by dividing IC50 Vero cells/IC50 L. (V.) braziliensis.

[2] = system: intracellular amastigote forms of Leishmania (Viannia) braziliensis; assay: Antileishmanial assay on intracellular amastigotes of L. (V.) braziliensis LUC (firefly luciferase reporter) in THP-1 macrophages; format: cell-based; details: for pIC50: Leishmania braziliensis, intracellular amastigotes in THP-1 macrophages, luciferase activity, 72 h; for activity against amastigote forms of L. (V.) braziliensis (in words): L. (V.) braziliensis expressing firefly luciferase
Protocol: Assays with L. (V.) braziliensis - L. (V.) braziliensis (strain MHOM/BR/1994/H3227) promastigotes were maintained in minimum essential culture medium (α-MEM) (Gibco/Brl, Grand Island, NY, USA) supplemented with 10% (v/v) heat inactivated foetal bovine serum (FBS, Cultilab, Campinas, SP, Brazil), […] kanamycin, […] ampicillin, 2 mm L-glutamine, 5 mg/mL hemin, and 5 mm biopterin (Sigma-Aldrich, St. Louis, USA), at pH 7.0 and incubated at 25°C.
For this assay, we used L. (V.) braziliensis LUC expressing firefly luciferase as a reporter gene. The transfection was performed as previously described ([Roy et al. 2000]). Human monocyte-derived macrophage cell line, THP-1, was maintained in RPMI 1640 medium supplemented with 10% FBS and differentiated in the presence of 20 ng/mL phorbol myristate for 72 h at 37°C. Cells were infected with L. (V.) braziliensis LUC promastigotes at a parasite/macrophage ratio of 10:1 for 3 h in a white walled 96-well tissue culture plate. Non-internalised parasites were removed by five washes with HEPES/NaCl buffer (20 mm HEPES, 0.15 M NaCl, 10 mm glucose, pH 7.2). The infected cells were then treated with 1.5-200.0 µg/mL of sample-tests and 0.006-0.8 µM of amphotericin B (positive control). After 72 h, RPMI was aspirated and luciferase activity was assessed by adding 20 µL reconstituted One-Glo™ Luciferase Assay system solution as enzyme substrate, following the manufacturer's instructions (Promega, Madison, WI, USA). Luciferase activity was measured by luminescence detection in a SpectraMax M5 luminometer (Molecular Devices, Sunnyvale, CA, USA) using 1 s integration/well. Non-infected THP-1 macrophages were used as signal background while non-treated infected THP-1 macrophages were used as control for growth comparison. Antileishmanial activity was expressed as the concentration required to inhibit 50% of parasite growth, as calculated by sigmoidal regression analyses using GraphPad Prism (Version 6.0c, GraphPad Software Inc., La Jolla, CA, USA).

[3] = system: amastigote forms of L. (V.) braziliensis strain MHOM/BR/75/M2903; parameters: method as in de Morais-Teixeira et al. 2014; details: different time periods of drug exposure (three, five, and seven days); ref de Morais-Teixeira et al. 2014; cited from earlier work
THP-1 cells = assay: Toxicity on host THP-1 macrophages, MTT; format: cell-based; details: for pIC50: Homo sapiens, read-out: THP-1 IC50; for toxicity to THP-1 cells (in words): concentration range tested
Protocol: To assess toxicity of the compounds on the host cells, THP-1 macrophages were seeded in 96-well plates at a density of 2 × 10^5 cells per well, differentiated in the presence of 20 ng/mL phorbol myristate for 72 h at 37°C, and treated with 1.5-200.0 µg/mL of the compounds or 1.5-200.0 μM of Amphotericin B. After 72 h treatment with compounds, cell death was estimated using MTT, which is metabolised by viable cells resulting in a purple product that can be quantified using a spectrophotometer (absorbance at 570 nm). The results were calculated from the absorbance measurements using the percentage of cell death in relation to the untreated cell controls.

KB cells = system: KB cells; parameters: method as in Anderson et al. 1985; details: human mouth epidermoid carcinoma; ref Anderson et al. 1985; cited from earlier work
[4] = system: Plasmodium falciparum (3D7); parameters: method as in Calcul et al. 2013; details: at 25 nM; ref Calcul et al. 2013; cited from earlier work
A549 cells = system: A549 cells; parameters: method as in Calcul et al. 2013; details: at 25 nM; ref Calcul et al. 2013; cited from earlier work
[5] = system: BC-1 human breast cancer cells; parameters: method as in Anderson et al. 1985; details: ref Anderson et al. 1985; cited from earlier work
[6] = system: Leishmania promastigotes and intracellular amastigotes in macrophages; parameters: method as in Roy et al. (2014); details: ref Roy et al. (2014); cited from earlier work
[7] = parameters: method as in DrugBank Database, DrugBank Version 5.0; details: Experimental property; ref DrugBank Database, DrugBank Version 5.0; cited from earlier work
tumour xenographs = system: tumour xenographs; parameters: method as in Rahier et al. (2015); details: ref Rahier et al. (2015); cited from earlier work

In the case of 18-des-hydroxy cytochalasin H, the “IC50, viability of L. amazonensis promastigotes” value [1] is given as 9.2 µg/mL.
In the case of `C[C@@H]1[C@H](O)[C@@H](C)/C=C/C=C/C=C/C=C/C=C/C=C/C=C/[C@H](O[C@@H]2O[C@H](C)[C@@H](O)[C@H](N)[C@@H]2O)C[C@@H]2O[C@](O)(C[C@@H](O)C[C@@H](O)[C@H](O)CC[C@@H](O)C[C@@H](O)CC(=O)O[C@H]1C)C[C@H](O)[C@H]2C(=O)O` [Amphotericin B, reference compound], the pIC50 (Vero cells; MTT) is given as 4.74, the pIC50 [2] is given as 6.92 and the pIC50 [3] is given as 7.22 to 7.70. The pIC50 (THP-1 cells; THP-1, MTT, 72 h) was 4.92.
In the case of `CC(=O)O[C@@]1(CO)CC[C@H](C(C)C)[C@H]2C=C(C(=O)O)COC(=O)[C@@H]21` [Compound 1, (+)-(5aS,6R,9S,9aS)-9-(acetyloxy)-9-(hydroxymethyl)-1-oxo-6-(propan-2-yl)-1,3,5a,6,7,8,9,9a-octahydro-2-benzoxepine-4-carboxylic acid], the pIC50 (Vero cells; MTT) was less than 3.70, the “selectivity index (SI)” value (Vero cells) was 9.3 and the “toxicity to Vero cells (in words)” value (Vero cells; MTT) was “low toxicity”. For the same compound, the “activity against amastigote forms of L. (V.) braziliensis (in words)” value (from here on “activity against amastigote forms”) [2] was “active”, the pIC50 [2] was 4.67 and the pIC50 (THP-1 cells; THP-1, MTT, 72 h) was less than 3.70. The “toxicity to THP-1 cells (in words)” value (THP-1 cells; MTT) was “low toxicity”.
In the case of `CC(=O)OCCCCC/C=C(/C(=O)O)[C@H](C)C(=O)O` [Compound 2, (+)-6′-acetoxy-piliformic acid], the pIC50 (Vero cells; MTT) was less than 3.70, the “toxicity to Vero cells (in words)” value (Vero cells; MTT) was “low toxicity” and the pIC50 [2] was 4.55. The pIC50 (THP-1 cells; THP-1, MTT, 72 h) was less than 3.70 and the “toxicity to THP-1 cells (in words)” value (THP-1 cells; MTT) was “low toxicity”.
With `C=CCCC/C=C(/C(=O)O)[C@H](C)C(=O)O` [Compound 3] the pIC50 (Vero cells; MTT) was less than 3.70, the “activity against amastigote forms” value [2] was “not active” and the pIC50 [2] was less than 3.70. The pIC50 (THP-1 cells; THP-1, MTT, 72 h) was less than 3.70.
For `CCCCC/C=C(/C(=O)O)[C@H](C)C(=O)O` [Compound 4, (+)-piliformic acid], the pIC50 (Vero cells; MTT) is listed as less than 3.70, the “selectivity index (SI)” value (Vero cells) is listed as 2.5 and the “IC50 KB cells” value (KB cells) is listed as 13 µg/mL (≈ 60.7 µM). The pIC50 [2] was 4.11, the “activity against Plasmodium falciparum (3D7) (in words)” value [4] was “inactive” and the “activity against A549 cells (in words)” value (A549 cells) was “inactive”. The “IC50 BC-1 human breast cancer cells” value [5] was 5 µg/mL (≈ 23.3 µM) and the pIC50 (THP-1 cells; THP-1, MTT, 72 h) was less than 3.70.
For `CC(C)C1CCC2(O)COC(=O)C2C1C=C(CO)C(=O)O` (stereo not shown) [Compound 5, hydroheptelidic acid], the pIC50 (Vero cells; MTT) was less than 3.70, the “toxicity to Vero cells (in words)” value (Vero cells; MTT) was “low toxicity” and the “activity against amastigote forms” value [2] was “showed activity”. For the same compound, the pIC50 [2] was 4.61, the pIC50 (THP-1 cells; THP-1, MTT, 72 h) was less than 3.70 and the “toxicity to THP-1 cells (in words)” value (THP-1 cells; MTT) was “low toxicity”.
In the case of `CC(C)[C@H]1CC[C@H]2COC(=O)[C@H]2[C@@H]1/C=C(\CO)C(=O)O` [Compound 6, xylaric acid D], the pIC50 (Vero cells; MTT) was less than 3.70, the “activity against amastigote forms” value [2] was “activity against L. (V.) braziliensis was lost” and the pIC50 [2] was less than 3.70. The pIC50 (THP-1 cells; THP-1, MTT, 72 h) was less than 3.70.
In the case of `C=C1[C@@H](C)[C@H]2[C@H](Cc3ccccc3)NC(=O)[C@]23[C@H](OC(C)=O)/C=C/[C@@](C)(O)C(=O)[C@@H](C)C/C=C/[C@H]3[C@@H]1O` [Compound 7, (+)-cytochalasin D], the pIC50 (Vero cells) is given as less than 3.70, the “effect on Leishmania attachment and intracellular amastigote load in macrophages (in words)” value [6] is given as “reduce the attachment of Leishmania promastigotes and the intracellular amastigote load” and the pIC50 [2] is given as 4.14. The pIC50 (THP-1 cells; THP-1, 72 h) was less than 3.70.
For `N=C(N)c1ccc(OCCCCCOc2ccc(C(=N)N)cc2)cc1` [Pentamidine, pentamidine], the “Log P [E]” value [7] is given as 4.
For `CC[C@H]1OC(=O)[C@H](C)[C@@H](O[C@H]2C[C@@](C)(OC)[C@@H](O)[C@H](C)O2)[C@H](C)[C@@H](O[C@@H]2O[C@H](C)C[C@H](N(C)C)[C@H]2O)[C@](C)(O)C[C@@H](C)CN(C)[C@H](C)[C@@H](O)[C@]1(C)O` [azithromycin], the pIC50 [3] is listed as 5.24.
In the case of `CC(C)[C@H]1CC[C@@]2(CO2)[C@H]2C(=O)OCC(C(=O)O)=C[C@H]12` [heptelidic acid], the “activity in vivo (in words)” value (tumour xenographs) is given as “very modest activity in vivo”.
In the case of `CCCCCCCCCCCCCCCCOP(=O)([O-])OCC[N+](C)(C)C` [miltefosine], the pIC50 [3] is listed as 5.27 to 6.10.
For `NC[C@@H]1O[C@H](O[C@H]2[C@@H](O)[C@H](O[C@@H]3[C@@H](O)[C@H](N)C[C@H](N)[C@H]3O[C@H]3O[C@H](CO)[C@@H](O)[C@H](O)[C@H]3N)O[C@@H]2CO)[C@H](N)[C@@H](O)[C@@H]1O` [paromomycin], the pIC50 [3] is listed as 3.46 to 3.63.
In the case of Meglumine antimoniate, the pIC50 [3] is listed as 3.48 to 3.75.
